The values below come from US11197862B2, “Methods of preventing toxicity of platinum drugs” (XOMICS BIOPHARMA, INC., priority 2015, dated 2021).

Data set [1] concerns the target T1, OCT2 (Homo sapiens, UniProt O15244).
T1 sequence (O15244 1-555): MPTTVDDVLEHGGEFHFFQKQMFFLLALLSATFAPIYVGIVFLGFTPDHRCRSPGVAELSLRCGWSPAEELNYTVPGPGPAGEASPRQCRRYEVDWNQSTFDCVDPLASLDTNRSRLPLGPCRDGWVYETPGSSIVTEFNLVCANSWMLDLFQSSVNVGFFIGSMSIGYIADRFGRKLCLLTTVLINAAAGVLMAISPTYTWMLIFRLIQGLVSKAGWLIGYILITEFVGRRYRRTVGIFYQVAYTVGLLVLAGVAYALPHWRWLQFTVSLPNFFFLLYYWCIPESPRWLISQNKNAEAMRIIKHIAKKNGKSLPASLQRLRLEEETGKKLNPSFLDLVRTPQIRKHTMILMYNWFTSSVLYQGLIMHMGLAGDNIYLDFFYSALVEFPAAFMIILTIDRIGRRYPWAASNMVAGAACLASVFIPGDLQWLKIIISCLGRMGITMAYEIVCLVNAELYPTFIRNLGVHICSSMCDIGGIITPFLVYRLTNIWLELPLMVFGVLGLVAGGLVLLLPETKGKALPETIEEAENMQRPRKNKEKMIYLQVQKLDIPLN
The conditions noted are these: human, 20 μM; cited from earlier work.

Data set [2] addresses T1, OCT2. As to the kind of experiment: in vitro.
For data set [3] the following is noted: human, in vivo; cited from earlier work.
For data set [4] the following is noted: human, in vivo.
For data set [5], the target named is T1, OCT2. In words: in vitro. This is another data set of the same source.
In data set [6] the target is T1, OCT2. In words: Inhibition of OCT2-mediated oxaliplatin uptake in transfected MDCK-II cells (protein-free HBSS). The conditions noted are these: for inhibition at 30 min, 5 μM / inhibition at 30 min, 50 μM / potency estimated from few doses at 30 min: human. From the text: Fully confluent MDCK cell monolayers were transfected with either cDNA plasmids encoding the human transporter to be tested or a GFP control. […] The cells were then washed with ice-cold PBS and lysed with 50:50 acetonitrile:H2O. Intracellular content of the substrate was quantified by LC/MS/MS or a MicroBeta radiometric plate reader.

The target in data set [7] is T1, OCT2. As to the kind of experiment: Inhibition of OCT2-mediated metformin uptake in transfected MDCK-II cells.
For data set [8], the system named is Balb/c mice exposed to acute treatment with Oxaliplatin. In words: Dynamic test (mechanical pain threshold) after a single oxaliplatin administration. Type of data set: in vivo, mouse. The conditions noted are these: 24 hours after single OXA 3.5 mg/kg iv; DTG 4 mg/kg ip 1 hour before; CPC 4 mg/kg iv co-administered; listed as CPC. The protocol: OXA vehicle, OXA, CPC, DTG, DTG+OXA and CPC+OXA were administered once time. In the group co-administered with OXA and DTG. DTG was injected intraperitoneally 1 hour before the administration of OXA. In the group co-administered with OXA and CPC, CPC was co-administered with OXA intravenously. Mechanical allodynia and cold sensory threshold (dynamic test and cold plate test) were performed 24 and 48 hours after the treatment, respectively, using the methods described in EXAMPLE 15 Plasma Sample Collection

The target of data set [9] is T1, OCT2.

For the molecule `CCNC(=O)[C@@H]1CCCN1C(=O)[C@H](CCCNC(=N)N)NC(=O)[C@H](CC(C)C)NC(=O)[C@@H](CC(C)C)NC(=O)[C@H](Cc1ccc(O)cc1)NC(=O)[C@H](CO)NC(=O)[C@H](Cc1c[nH]c2ccccc12)NC(=O)[C@H](Cc1c[nH]cn1)NC(=O)[C@@H]1CCC(=O)N1` [Leuprolide], in data set [1], the “Inhibition % @ 20 μM (substrate ASP+)” value is 88%. For the same molecule, the potency estimated from few doses in [2] was 2800 nM. Also, in data set [3], the Cmax was 17 nM and the “Plasma protein binding (%)” value is on record as 46%. Also, the “Plasma peak unbound concentration Cmax,u” value in data set [4] was 10 nM. In data set [5], this molecule returned an inhibition at 5 min, 5 μM of 58% and an inhibition at 5 min, 50 μM of 91%. For the same molecule, in [6], inhibition was half-maximal at 1570 nM (IC50); the inhibition at 30 min, 5 μM amounted to 76%; the inhibition at 30 min, 50 μM turned out to be 97%; the potency estimated from few doses at 30 min was 1.57 µM. The molecule further had a concentration for half-maximal inhibition (IC50) in data set [7] of 3620 nM.

`NC(=O)OCC(O)COc1ccc(Cl)cc1` (stereo not drawn) [Chlorphenesin Carbamate]: the “Mechanical Pain Threshold (MPT), mechanical hypersensitivity” value in data set [8] was “no such effect”. Also, in data set [9], the “IC50 (μM) (substrate Metformin)” value is recorded as “no”. In data set [6] (comparison of Table 1 potencies), the “fold less potent as inhibitor of OCT2-mediated metformin and oxaliplatin uptake than of ASP+ uptake” value is “more than 100 fold”. Moreover, in [6], the inhibition at 30 min, 5 μM amounted to 28% and the inhibition at 30 min, 50 μM stood at 36%. Also, the potency estimated from few doses at 30 min in data set [6] (IC50 (μM) (substrate Oxaliplatin)) was 90.4 µM.
